The text below walks through data of patent publication US12570615B2, “Quinazolinone derivatives” (Hoffmann-La Roche Inc., priority 2021, dated 2026).

Structures are written as SMILES.

In test [1] the target is BRAF (V600E) (Homo sapiens, UniProt P15056, V600E). Briefly: KD BRAF (V600E) (Table 1). The test is classed as binding.
Test [2] concerns the target BRAF (wt) (Homo sapiens, UniProt P15056). Nature of the test: KD BRAF (wt) (Table 1). Format: binding.
Test [3] has as its system P-ERK (ERK phospho-T202/Y204) in A375 cells expressing V600E mutated BRAF. Nature of the test: HTRF assay for P-ERK determination in A375 cells (BRAF inhibition). The test is classed as cell-based. The following applies: Homo sapiens, A-375, P-ERK level, drug incubation 1 hour, DMSO = 100%, 10 μM Dabrafenib = 0%. An excerpt:
(§1) A375 is a cellular cancer model expressing V600E mutated BRAF and HCT116 a cellular cancer model expressing WT BRAF. First generation BRAF inhibitors such as e.g. dabrafenib induce a paradox effect on tumour cells in that they inhibit the growth of V600E mutated BRAF cells (such as e.g. A375), while they activate growth in WT BRAF cells (such as e.g. HCT 116). ERK 1,2 phosphorylation (terminal member of the phosphorylation cascade of the MAPK pathway) is hereafter reported as main readout for the activation status of the MAPK pathway. DMEM no-phenol red medium supplemented with L-glutamine was purchased from (Thermo Fisher Scientific). Fetal bovine serum (FBS) was purchased from VWR. Advanced ERK phospho-T202/Y204 kit—10,000 tests was purchased from Cisbio cat #64AERPEH. A375 (catalog #CRL-1619) and HCT116 (catalog #CCL-247) cells were originally obtained from American type Culture Collection (ATCC) and banked by the Roche repository. 384-Well microplates utilized were purchased from Greiner Bio-One, 384-well, (With Lid, HiBase, Low volume cat 784-080).
(§2) Prior to the assay, A375 and HCT116 cell lines are maintained in DMEM no-phenol red medium supplemented with 10% fetal bovine serum (FBS). Following compound treatment, P-ERK levels are determined by measuring FRET fluorescence signal induced by selective binding of 2 antibodies provided in the mentioned kit (Cisbio cat #64AERPEH) on ERK protein when phosphorylated at Thr202/Tyr204. Briefly, 8000 cells/well in 12 μl media/well are plated in the 384-well plate and left overnight in the incubator (at 37° C. with 5% CO2-humidified atmosphere), the following day the plate is treated in duplicate with test compounds, dabrafenib and PLX8394 (the latter two as controls) at the following final drug concentrations: 10 μM-3 μM 1 μM-0.3 μM-0.1 μM-0.03 μM-0, 01 μM-0.003 μM-0.001 μM, all wells are subjected to DMSO normalization and drug incubation occurs for 1 hour. Then, […] of a 4× lysis buffer supplied with the kit are added to the wells, the plate is then centrifuged for 30 second (3000 rpm) and incubated on a plate shaker for 1 h at rt.
(§3) At the end of the incubation 4 μL/well of advanced P-ERK antibody solution (prepared according to manufacturer's instruction) followed by 4 μL/well of criptate P-ERK antibody solution (prepared according to manufacturer's instruction) (Cisbio cat #64AERPEH) are added to test wells.
(§4) In order to allow proper data normalization control wells non drug treated reported in the following table are always included in each plate (according to manufacturer's instruction):
(§5) The plate is then centrifuged at 3000 rpm for 30 second, sealed to prevent evaporation and incubated overnight in the dark at room temperature.
(§6) The plate is then analyzed and fluorescence emission value collected through a Pherastast FSX (BMG Labtech) apparatus at […].
(§7) The obtained fluorescence values are processed according to the formula Ratio=[…]*10000 then the average of the ratio on the blank is subtracted to all values.
Data are normalized in the case of A375 cells (BRAF inhibition) considering the average of the ratio (blank subtracted) derived by DMSO only treated cells as 100% and by considering the average of the ratio (blank subtracted) derived by 10 μM Dabrafenib treated cells as 0%. Mean of the normalized points are fitted with sigmoidal curve and IC50 determined.

For test [4], the system named is P-ERK (ERK phospho-T202/Y204) in HCT116 cells expressing WT BRAF. Briefly: HTRF assay for P-ERK determination in HCT116 cells (BRAF activation). The test is classed as cell-based. As to conditions: Homo sapiens, HCT-116, drug incubation 1 hour, concentration giving 50% of the maximum activation achieved by Dabrafenib.
Excerpt: as §1, §2, §3, §4, §5, §6, §7
Data are normalized in the case of HCT116 cells (BRAF activation) considering the average of the ratio (blank subtracted) derived by DMSO only treated cells as 0% and by considering the average of the ratio (blank subtracted) derived by Dabrafenib treated cells at the concentration which provides the highest signal as 100%. Individual points are fitted with either sigmoidal or bell shape curves. The EC50 is the concentration at which activation equal to 50% of the maximum activation achieved by Dabrafenib is obtained.

Chain of BRAF (V600E) (P15056 whole entry V600E): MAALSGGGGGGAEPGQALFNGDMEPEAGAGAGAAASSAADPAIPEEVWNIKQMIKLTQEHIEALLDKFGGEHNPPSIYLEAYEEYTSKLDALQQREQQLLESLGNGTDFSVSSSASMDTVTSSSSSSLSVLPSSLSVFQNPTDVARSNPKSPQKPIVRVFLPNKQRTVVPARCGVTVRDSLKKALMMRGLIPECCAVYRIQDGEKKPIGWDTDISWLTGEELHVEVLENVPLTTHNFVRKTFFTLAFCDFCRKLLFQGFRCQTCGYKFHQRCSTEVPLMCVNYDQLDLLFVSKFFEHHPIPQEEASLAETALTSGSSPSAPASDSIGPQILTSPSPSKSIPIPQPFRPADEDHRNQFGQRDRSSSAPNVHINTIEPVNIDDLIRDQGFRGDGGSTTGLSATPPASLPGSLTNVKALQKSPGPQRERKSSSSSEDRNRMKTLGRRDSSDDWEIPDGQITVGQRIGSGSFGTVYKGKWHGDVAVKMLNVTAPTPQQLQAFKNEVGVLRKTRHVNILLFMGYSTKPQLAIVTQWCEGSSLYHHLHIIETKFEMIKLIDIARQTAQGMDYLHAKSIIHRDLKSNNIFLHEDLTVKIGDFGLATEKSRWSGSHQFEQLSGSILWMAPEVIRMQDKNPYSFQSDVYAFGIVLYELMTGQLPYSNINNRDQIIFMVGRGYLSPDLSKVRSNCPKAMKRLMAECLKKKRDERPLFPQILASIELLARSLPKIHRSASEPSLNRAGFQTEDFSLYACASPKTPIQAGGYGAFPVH
Chain of BRAF (wt) (P15056 whole entry): as the sequence (P15056 whole entry V600E) above, with E600V counted along it

Consider `CCN(C)S(=O)(=O)Nc1ccc(F)c(Oc2ccc3ncn(CCC4CCN(C(=O)OC(C)(C)C)CC4)c(=O)c3c2)c1C#N` [Example 3, tert-butyl 4-[2-[6-[2-cyano-3-[[ethyl(methyl)sulfamoyl]amino]-6-fluoro-phenoxy]-4-oxo-quinazolin-3-yl]ethyl]piperidine-1-carboxylate], for which the Kd in test [1] worked out at 0.162 µM; in test [2] it was 0.0783 µM. The molecule also yielded a half-maximal inhibitory concentration (IC50) in test [3] of 0.041 µM. For the same molecule, the EC50 in test [4] was 6.4 µM.

`N#Cc1c(Nc2ccc3ncn(CCOCc4ccccc4)c(=O)c3c2)cccc1NS(=O)(=O)N1CC[C@@H](F)C1` [Example 36, (3R)—N-[3-[[3-(2-benzyloxyethyl)-4-oxo-quinazolin-6-yl]amino]-2-cyano-phenyl]-3-fluoro-pyrrolidine-1-sulfonamide]: the Kd in test [1] is 0.273 µM; in test [2] it was 0.131 µM. In test [3], this molecule yielded an IC50 of 0.114 µM. Besides, in test [4], the EC50 is at least 10 µM.

`CCC(C)S(=O)(=O)Nc1ccc(F)c(Oc2ccc3ncn(CCC4CCN(C(=O)OC(C)(C)C)CC4)c(=O)c3c2)c1C#N` (stereo not drawn) [Example 15, tert-butyl 4-[2-[6-[2-cyano-6-fluoro-3-(sec-butylsulfonylamino)phenoxy]-4-oxo-quinazolin-3-yl]ethyl]piperidine-1-carboxylate]: the Kd turned out to be 0.0935 µM in test [1] and 0.0504 µM in test [2]. In test [3], this molecule had an IC50 of 0.0789 µM. For the same molecule, the EC50 in test [4] came out at 4.04 µM.

`CC(C)(C)OC(=O)N1CCC(CCn2cnc3ccc(Oc4c(F)ccc(NS(=O)(=O)N5CCCC5)c4C#N)cc3c2=O)CC1` [Example 7, tert-butyl 4-[2-[6-[2-cyano-6-fluoro-3-(pyrrolidin-1-ylsulfonylamino)phenoxy]-4-oxo-quinazolin-3-yl]ethyl]piperidine-1-carboxylate]: the Kd is 0.0208 µM in test [1] and 0.0122 µM in test [2]. The molecule further gave a half-maximal inhibitory concentration (IC50) in test [3] of 0.052 µM. In test [4], this molecule yielded an EC50 of 2.1 µM.

Regarding `N#Cc1c(Nc2ccc3ncn(CCCc4ccccc4)c(=O)c3c2)cccc1NS(=O)(=O)N1CC[C@@H](F)C1` [Example 44, (3R)—N-[2-cyano-3-[[4-oxo-3-(3-phenylpropyl)quinazolin-6-yl]amino]phenyl]-3-fluoro-pyrrolidine-1-sulfonamide], the Kd turned out to be 0.0256 µM in test [1] and 0.0151 µM in test [2]. The IC50 in test [3] was found to be 0.0182 µM. The molecule also gave an EC50 in test [4] of 2.07 µM.

For `CC(C)(C)OC(=O)N1CCCC(CCn2cnc3ccc(Oc4c(F)ccc(NS(=O)(=O)N5CCCC5)c4C#N)cc3c2=O)C1` (stereo not drawn) [Example 23, tert-butyl 3-[2-[6-[2-cyano-6-fluoro-3-(pyrrolidin-1-ylsulfonylamino)phenoxy]-4-oxo-quinazolin-3-yl]ethyl]piperidine-1-carboxylate], the results for the dissociation constant (Kd) in test [1] and in test [2] were 0.0102 µM and 0.00923 µM, respectively. This molecule also displayed an IC50 in test [3] of 0.0497 µM. In addition, the response in test [4] was half-maximal at 2.3 µM (EC50).

On to `CC(C)(C)OC(=O)NCCCn1cnc2ccc(Oc3c(F)ccc(NS(=O)(=O)C4CCCCC4)c3C#N)cc2c1=O` [Example 12, tert-butyl N-[3-[6-[2-cyano-3-(cyclohexylsulfonylamino)-6-fluoro-phenoxy]-4-oxo-quinazolin-3-yl]propyl]carbamate], for which the Kd was 0.0592 µM in test [1] and 0.0276 µM in test [2]. For the same molecule, the IC50 in test [3] is 0.0559 µM. In test [4], the EC50 was determined as 4.93 µM.

Regarding `CC(C)(C)OC(=O)N1CCN(C(=O)CCCn2cnc3ccc(Nc4cccc(NS(=O)(=O)N5CC[C@@H](F)C5)c4C#N)cc3c2=O)CC1` [Example 40, tert-butyl 4-[4-[6-[2-cyano-3-[[(3R)-3-fluoropyrrolidin-1-yl]sulfonylamino]anilino]-4-oxo-quinazolin-3-yl]butanoyl]piperazine-1-carboxylate], the Kd in test [1] turned out to be 0.00788 µM; in test [2], 0.00371 µM. In addition, the midpoint of inhibition in test [3], the IC50, lay at 0.334 µM. The molecule also registered an EC50 in test [4] of at least 10 µM.

Turning to `CN(CCNC(=O)CCCn1cnc2ccc(Nc3cccc(NS(=O)(=O)N4CC[C@@H](F)C4)c3C#N)cc2c1=O)C(=O)OC(C)(C)C` [Example 45, tert-butyl N-[2-[4-[6-[2-cyano-3-[[(3R)-3-fluoropyrrolidin-1-yl]sulfonylamino]anilino]-4-oxo-quinazolin-3-yl]butanoylamino]ethyl]-N-methyl-carbamate], the equilibrium dissociation constant (Kd) in test [1] was found to be 0.00834 µM; in test [2], 0.00341 µM. In test [3], this molecule registered a half-maximal inhibitory concentration (IC50) of 0.814 µM. Moreover, the 50% effective concentration (EC50) in test [4] was at least 10 µM.

In the case of `CN(Cc1ccc(CCCn2cnc3ccc(Oc4c(F)ccc(NS(=O)(=O)N5CCCC5)c4C#N)cc3c2=O)cc1)C(=O)OC(C)(C)C` [Example 30, tert-butyl N-[[4-[3-[6-[2-cyano-6-fluoro-3-(pyrrolidin-1-ylsulfonylamino)phenoxy]-4-oxo-quinazolin-3-yl]propyl]phenyl]methyl]-N-methyl-carbamate], the Kd turned out to be 0.0121 µM in test [1] and 0.00615 µM in test [2]. In test [3], the concentration for half-maximal inhibition (IC50) was 0.0524 µM. The same molecule displayed an EC50 in test [4] of 0.455 µM.

As to `CC(C)(C)OC(=O)N1CCC(CCn2cnc3ccc(Oc4c(F)ccc(NS(=O)(=O)C5CCCC5)c4C#N)cc3c2=O)CC1` [Example 17, tert-butyl 4-[2-[6-[2-cyano-3-(cyclopentylsulfonylamino)-6-fluoro-phenoxy]-4-oxo-quinazolin-3-yl]ethyl]piperidine-1-carboxylate], the Kd in test [1] was found to be 0.0246 µM; in test [2], 0.0123 µM. The same molecule returned an IC50 in test [3] of 0.0571 µM. The molecule further returned an EC50 in test [4] of 1.14 µM.

On to `CCN(C)S(=O)(=O)Nc1ccc(F)c(Oc2ccc3ncn(CCCNC(=O)OC(C)(C)C)c(=O)c3c2)c1C#N` [Example 6, tert-butyl N-[3-[6-[2-cyano-3-[[ethyl(methyl)sulfamoyl]amino]-6-fluoro-phenoxy]-4-oxo-quinazolin-3-yl]propyl]carbamate], for which the figures for the Kd in test [1] and in test [2] were 0.0194 µM and 0.00636 µM, respectively. For the same molecule, 0.0416 µM corresponded to half-maximal inhibition in test [3] (IC50). In test [4], this molecule came in with an EC50 of at least 10 µM.

With `CCC(C)S(=O)(=O)Nc1ccc(F)c(Oc2ccc3ncn(CCCNC(=O)OC(C)(C)C)c(=O)c3c2)c1C#N` (stereo not drawn) [Example 13, tert-butyl N-[3-[6-[2-cyano-6-fluoro-3-(sec-butylsulfonylamino)phenoxy]-4-oxo-quinazolin-3-yl]propyl]carbamate], the Kd was 0.0193 µM in test [1] and 0.0121 µM in test [2]. The IC50 in test [3] worked out at 0.0363 µM. The midpoint of the response in test [4], the EC50, lay at 2.82 µM.

Turning to `CC(C)(C)OC(=O)N1CCC(NC(=O)CCCn2cnc3ccc(Nc4cccc(NS(=O)(=O)N5CC[C@@H](F)C5)c4C#N)cc3c2=O)CC1` [Example 41], the Kd is 0.00929 µM in test [1] and 0.00619 µM in test [2]. Further, the IC50 in test [3] came to 1.51 µM. In test [4], the EC50 is at least 10 µM.

As for `CC(C)(C)OC(=O)N1CCC(CCn2cnc3ccc(Nc4cccc(NS(=O)(=O)N5CCCC5)c4C#N)cc3c2=O)CC1` [Example 46, tert-butyl 4-[2-[6-[2-cyano-3-(pyrrolidin-1-ylsulfonylamino)anilino]-4-oxo-quinazolin-3-yl]ethyl]piperidine-1-carboxylate], the figures for the Kd in test [1] and in test [2] were 0.0735 µM and 0.0212 µM, respectively. Also, in test [3], half-maximal inhibition (IC50) was put at 0.0206 µM. The molecule further yielded an EC50 in test [4] of 2.54 µM.
